Reference: patent US11702404B2, “GLP-1R modulating compounds” (priority 2019, dated 2023)
Read-outs that look alike come from different tables or passages of the source.

Legend:
GLP-1R = GLP-1R (Homo sapiens, UniProt P43220); assay: GLP-1R activation: cAMP increase in CHO cells stably expressing GLP-1R; type: cell-based
[1] = Microsomal stability, human liver microsomes (predicted hepatic clearance); settings: predicted from in vitro microsomal stability data
[2] = cAMP increase, CHO cells stably expressing GLP-1R, 10 point dose response, 30 minutes incubation, read-out: EC50

Chain of GLP-1R (P43220 24-463): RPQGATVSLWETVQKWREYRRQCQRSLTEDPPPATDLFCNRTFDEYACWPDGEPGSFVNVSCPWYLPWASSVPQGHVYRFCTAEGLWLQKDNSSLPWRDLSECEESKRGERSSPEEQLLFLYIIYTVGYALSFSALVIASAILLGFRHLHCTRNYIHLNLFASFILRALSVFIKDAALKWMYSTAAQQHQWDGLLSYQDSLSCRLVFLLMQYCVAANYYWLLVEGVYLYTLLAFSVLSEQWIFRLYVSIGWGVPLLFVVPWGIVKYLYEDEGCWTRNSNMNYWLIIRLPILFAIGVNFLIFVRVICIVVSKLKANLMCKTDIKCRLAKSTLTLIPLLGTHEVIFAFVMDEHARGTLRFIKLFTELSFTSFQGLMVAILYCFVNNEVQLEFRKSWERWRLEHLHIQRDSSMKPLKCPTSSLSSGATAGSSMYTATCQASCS

SMILES | EC50 (GLP-1R; [2]) [nM] | Predicted Hepatic Clearance (Pred. Cl.) [1] [mL/min/kg] | EC50 (GLP-1R; EC50 (nM)) [nM]
COCCn1c(Cc2c(F)cc(-c3csnc3OCc3ccc(C#N)cc3F)cc2F)nc2ccc(C(=O)O)cc21 [Example 76, 2-(4-(3-((4-cyano-2-fluorobenzyl)oxy)isothiazol-4-yl)-2,6-difluorobenzyl)-1-(2-methoxyethyl)-1H-benzo[d]imidazole-6-carboxylic acid] | 22.3 | 13.4 | 
COCCn1c(Cc2ccc(-c3ncc(F)c(OCc4ccc(C#N)cc4F)n3)c(F)c2F)nc2ccc(C(=O)O)cc21 [Example 169, 2-(4-(4-((4-cyano-2-fluorobenzyl)oxy)-5-fluoropyrimidin-2-yl)-2,3-difluorobenzyl)-1-(2-methoxyethyl)-1H-benzo[d]imidazole-6-carboxylic acid] | 4.31 | 5.33 | 
COCCn1c(Cc2ccc(-c3cccc(OCc4ccc(C#N)cc4F)c3)cc2F)nc2ccc(C(=O)O)cc21 [Example 6, 2-((3′-((4-cyano-2-fluorobenzyl)oxy)-3-fluoro-[1,1′-biphenyl]-4-yl)methyl)-1-(2-methoxyethyl)-1H-benzo[d]imidazole-6-carboxylic acid] | 56.1 | 3.5 | 
N#CCC1(Cn2c(Cc3ccc(-c4cccc(OCc5ccc(C#N)cc5F)n4)cc3F)nc3ccc(C(=O)O)cc32)CC1 [Example 16, 2-(4-(6-((4-cyano-2-fluorobenzyl)oxy)pyridin-2-yl)-2-fluorobenzyl)-1-((1-(cyanomethyl)cyclopropyl)methyl)-1H-benzo[d]imidazole-6-carboxylic acid] | 0.55 | 5.5 | 
COCCn1c(Cc2ccc(-c3cccc(OCc4ccc(C(F)(F)F)cc4)n3)cc2F)nc2ccc(C(=O)O)cc21 [Example 508, 2-(2-fluoro-4-(6-((4-(trifluoromethyl)benzyl)oxy)pyridin-2-yl)benzyl)-1-(2-methoxyethyl)-1H-benzo[d]imidazole-6-carboxylic acid] | 16.5 | 2.5 | 
N#Cc1ccc(COc2cccc(-c3ccc(Cc4nc5ccc(C(=O)O)cc5n4C[C@@H]4CCCO4)c(F)c3)n2)c(F)c1 [Example 194, (S)-2-(4-(6-((4-cyano-2-fluorobenzyl)oxy)pyridin-2-yl)-2-fluorobenzyl)-1-((tetrahydrofuran-2-yl)methyl)-1H-benzo[d]imidazole-carboxylic acid] | 0.86 | 4.67 | 
COCCn1c(Cc2ccc(-c3cccc(OCc4ccc(Cl)cc4OCC(F)F)n3)cc2F)nc2ccc(C(=O)O)cc21 [Example 244, 2-(4-(6-((4-chloro-2-(2,2-difluoroethoxy)benzyl)oxy)pyridin-2-yl)-2-fluorobenzyl)-1-(2-methoxyethyl)-1H-benzo[d]imidazole-6-carboxylic acid] | 159 | 5.67 | 
N#Cc1ccc(COc2cccc(-c3ccc(Cc4nc5ccc(C(=O)O)nc5n4CC4(CF)CC4)c(F)c3)n2)c(F)c1 [Example 355, 2-(4-(6-((4-cyano-2-fluorobenzyl)oxy)pyridin-2-yl)-2-fluorobenzyl)-3-((1-(fluoromethyl)cyclopropyl)methyl)-3H-imidazo[4,5-b]pyridine-5-carboxylic acid] | 0.97 | 3.3 | 
COCCn1c(Cc2ccc(-c3nc(OCc4ccc(C#N)cc4F)ccc3F)cc2F)nc2ccc(C(=O)O)cc21 [Example 91, 2-(4-(6-((4-cyano-2-fluorobenzyl)oxy)-3-fluoropyridin-2-yl)-2-fluorobenzyl)-1-(2-methoxyethyl)-1H-benzo[d]imidazole-6-carboxylic acid] | 2630 | 5 | 
O=C(O)c1ccc2nc(Cc3ccc(-c4cccc(OCc5ccc(Cl)cc5F)n4)cc3F)n(CC3(CF)CC3)c2c1 [Example 352, 2-(4-(6-((4-chloro-2-fluorobenzyl)oxy)pyridin-2-yl)-2-fluorobenzyl)-1-((1-(fluoromethyl)cyclopropyl)methyl)-1H-benzo[d]imidazole-6-carboxylic acid] | 1.45 | <1.83 | 
N#Cc1ccc(COc2cccc(-c3cc(F)c(Cc4nc5c(F)cc(C(=O)O)cc5n4CC4(CF)CC4)cc3F)n2)c(F)c1 [Example 448, 2-(4-(6-((4-cyano-2-fluorobenzyl)oxy)pyridin-2-yl)-2,5-difluorobenzyl)-4-fluoro-1-((1-(fluoromethyl)cyclopropyl)methyl)-1H-benzo[d]imidazole-6-carboxylic] | 1.23 | <1.83 | 
N#Cc1ccc(COc2nc(-c3ccc(Cc4nc5ccc(C(=O)O)cc5n4C[C@@H]4CCO4)c(F)c3)ccc2F)c(F)c1 [Example 128, (S)-2-(4-(6-((4-cyano-2-fluorobenzyl)oxy)-5-fluoropyridin-2-yl)-2-fluorobenzyl)-1-(oxetan-2-ylmethyl)-1H-benzo[d]imidazole-6-carboxylic acid] | 0.51 | <1.83 | 
COCCn1c(Cc2ccc(-c3cccc(OCc4cccc(C5CC5)c4)n3)cc2F)nc2ccc(C(=O)O)cc21 [Example 137, 2-(4-(6-((3-cyclopropylbenzyl)oxy)pyridin-2-yl)-2-fluorobenzyl)-1-(2-methoxyethyl)-1H-benzo[d]imidazole-6-carboxylic acid] | 32.2 | 4.83 | 
COCCn1c(Cc2ccc(-c3cccc(OCc4ccc(C#N)cc4F)n3)c(F)c2)nc2ccc(C(=O)O)cc21 [Example 3, 2-(4-(6-((4-cyano-2-fluorobenzyl)oxy)pyridin-2-yl)-3-fluorobenzyl)-1-(2-methoxyethyl)-1H-benzo[d]imidazole-6-carboxylic acid] |  | 3.83 | 10.3
N#Cc1ccc(COc2nccc(-c3cc(F)c(Cc4nc5ccc(C(=O)O)nc5n4CC4(CF)CC4)c(F)c3)n2)c(F)c1 [Example 298, 2-(4-(2-((4-cyano-2-fluorobenzyl)oxy)pyrimidin-4-yl)-2,6-difluorobenzyl)-3-((1-(fluoromethyl)cyclopropyl)methyl)-3H-imidazo[4,5-b]pyridine-5-carboxylic acid] | 4.75 | <1.83 | 

Continued, in another order:

EC50 (GLP-1R; [2]) [nM] | Predicted Hepatic Clearance (Pred. Cl.) [1] [mL/min/kg] | SMILES | EC50 (GLP-1R; EC50 (nM)) [nM]
0.86 | 8 | N#Cc1ccc(COc2cccc(-c3cc(F)c(Cc4nc5ccc(C(=O)O)cc5n4Cc4nncs4)cc3F)n2)c(F)c1 [Example 576, 1-((1,3,4-thiadiazol-2-yl)methyl)-2-(4-(6-((4-cyano-2-fluorobenzyl)oxy)pyridin-2-yl)-2,5-difluorobenzyl)-1H-benzo[d]imidazole-6-carboxylic acid] | 
3.6 | 4.33 | N#Cc1ccc(COc2cccc(-c3cc(F)c(Cc4nc5ccc(C(=O)O)cc5n4C4CCCOC4)cc3F)n2)c(F)c1 (stereo not drawn) [Example 838] | 
66.5 | 7.17 | CCn1nccc1Cn1c(Cc2ccc(-c3cccc(OCc4ccc(C#N)cc4F)n3)cc2F)nc2ccc(C(=O)O)cc21 [Example 524, 2-(4-(6-((4-cyano-2-fluorobenzyl)oxy)pyridin-2-yl)-2-fluorobenzyl)-1-((l-ethyl-1H-pyrazol-5-yl)methyl)-1H-benzo[d]imidazole-6-carboxylic acid] | 
0.59 | 2.5 | N#Cc1ccc(COc2cccc(-c3cnc(Cc4nc5ccc(C(=O)O)cc5n4C[C@@H]4CCO4)c(F)c3)n2)c(F)c1 [Example 682] | 
56.7 | 1.83 | COCCn1c(Cc2cc(F)c(-c3cccc(OCc4ccc(-c5ccn(C)n5)cc4F)n3)cc2F)nc2ccc(C(=O)O)cc21 [Example 917] | 
3.57 | 10 | COCCn1c(Cc2cc(F)c(-c3cccc(OCc4ccc(C)nc4)n3)cc2F)nc2ccc(C(=O)O)cc21 [Example 811] | 
1220 | 10.3 | COC1(Cn2c(Cc3cc(F)c(-c4cccc(OCc5ccc(C#N)cc5F)n4)cc3F)nc3ccc(C(=O)O)cc32)CN(S(C)(=O)=O)C1 [Example 688] | 
0.45 | 7.5 | N#Cc1ccc(COc2cccc(-c3ccc(Cc4nc5ccc(C(=O)O)cc5n4CC4(C(F)F)CC4)cc3F)n2)c(F)c1 [Example 528, 2-(4-(6-((4-cyano-2-fluorobenzyl)oxy)pyridin-2-yl)-3-fluorobenzyl)-1-((1-(difluoromethyl)cyclopropyl)methyl)-1H-benzo[d]imidazole-6-carboxylic acid] | 
0.33 | 2.83 | Cc1cc2nc(Cc3cc(F)c(-c4cccc(OCc5ccc(C#N)cc5F)n4)cc3F)n(C[C@@H]3CCO3)c2cc1C(=O)O [Example 921] | 
0.56 | 3.67 | N#Cc1cc(F)c(COc2cccc(-c3ccc(Cc4nc5ccc(C(=O)O)cc5n4C[C@@H]4CCO4)c(F)c3)n2)cc1F [Example 668] | 
0.17 | 1.83 | N#Cc1ccc(COc2nc(-c3cc(F)c(Cc4nc5c(F)cc(C(=O)O)cc5n4C[C@@H]4CCO4)cc3F)ccc2F)cn1 [Example 779] | 
1320 | 1.83 | Cc1nnc(Cn2c(Cc3cc(F)c(-c4cccc(OCc5ccc(C#N)cc5F)n4)cc3F)nc3ccc(C(=O)O)cc32)o1 [Example 748] | 
2.41 | 1.83 | COCCn1c(Cc2cc(F)c(-c3cccc(OCc4cc(F)c(C(F)(F)F)cc4F)n3)cc2F)nc2ccc(C(=O)O)cc21 [Example 867] | 
0.65 | 1.83 | N#Cc1ccc(COc2nc(-c3ccc(Cc4nc5ccc(C(=O)O)cc5n4C[C@@H]4CCO4)cc3)ccc2F)c(F)c1 [Example 795] | 
41.7 | 1.83 | COCCn1c(Cc2cc(F)c(-c3cccc(OCc4ccn(-c5ccccc5)n4)n3)cc2F)nc2ccc(C(=O)O)cc21 [Example 694] | 
